Counter-ions that a name gives are not always drawn.

The subject of one data set is AH66F cancer cells. Briefly: Life-prolonging effect upon rats with AH66F cancer cells. Format: in vivo, rat. To be noted: for Survival dates: peritoneally administered, control 7.3 ± 0.3; for Life-prolonging percentage: vs control group. As for the experimental part: AH66F cancer cells (1×10^6 cells) were each peritoneally administered to Donryu male rats (six week age, 100-120 g, each group--6 rats). Immediately thereafter, a solution of sialic acid (dosage: 10 mg/kg and 100 mg/kg) or physiological saline solution was peritoneally administered in a dosage of 0.5 ml (control group). Then, after sialic acid or physiological saline solution was peritoneally administered over 2 days, survival dates of the rats were observed.
The life-prolonging percentage was calculated according to the following formula. Life-prolonging percentage=[(survival dates of treated group)-(survival dates of control group)/(survival dates of control group]×100

Data set [1] has as its system AH66F cells adhering to M-cells. Description: Inhibition of adhesion of AH66F cells to M-cells under coexistence of anti-LFA-1 antibody. It counts as cell-based, rat. The procedure:
(§1) Mesentery cells (M-cells) originating from a rat was cultivated inside a cell-cultivating well plate with a Dulbecco's Modification of Eagle's Medium (DMEM) containing 5% fetal calf serum (FCS). When the cells spread over the entire face of the well, the cells were washed with DMEM containing no FC3. Further, the cells were cultivated with DMEM containing 10 μg/ml or 100 μg/ml of sialic acid at 37° C. After 45 minutes passed, the well was washed with DMEM, and rat AH66F cells ([…]) and sialic acid at a concentration shown in FIG. 1 were added together with DMEM. The mixture was cultivated at 37° C. for one hour. After the cultivation, the mixture was stirred for 30 second, and a cultivation supernatant liquid was taken into a sample tube. Into each well was added 200 μl of fresh DMEM, and washing was similarly carried out under stirring for 15 seconds. […] Then, the number of the cells was measured by a haemacytometer under a microscope (the number of non-adhered cells).
(§2) As a control, only cancer cells were cultivated, the same operations as mentioned above were effected, and the number of the cells were measured (the number of cells in control).
(§3) The adhesive rate (%) of the cancer cells was calculated according to the following calculating formula. […]

Data set [2] relates to rat AH66F cells adhering to mesentery cells (M-cells). Briefly: Inhibition of adhesion of rat AH66F cancer cells to rat mesentery cells (M-cells). It counts as cell-based. Conditions: average over four wells.
Source text: The present inventors employed, as a model system for the measurement of the metastasis-inhibiting action upon the cancer cells, a system in which rat ascites hepatoma as extremely malignant cancer cells were adhered to mesenteries of a rat. They also employed a cell system as a simpler technique. As the former cancer cells, AH66F-cells were used, whereas M-cells were used as the latter mesentery cells.
as §1, with “DMEM.” for “DMEM. The mixture was cultivated at 37° C. for one hour. After the cultivation, the mixture was stirred for 30 second, and a cultivation supernatant liquid was taken into a sample tube. Into each well was added 200 μl of fresh DMEM, and washing was similarly carried out under stirring for 15 seconds.”
as §2, §3

Data set [3] in a line: Acute toxicity test, intravenous, male Wister-strain rats. To be noted: rat, in vivo, intravenous administration, sodium salts, pH 7.0.

On to `CC(=O)N[C@H]1[C@H]([C@H](O)[C@H](O)CO)OC(O)(C(=O)O)C[C@@H]1O` (stereo partly drawn) [sialic acid, N-acetylneuraminic acid], for which the “life-prolonging effect, times that of control group” value in the data set on AH66F cancer cells (10 mg/Kg) came out at 1.6 times; in the data set with AH66F cancer cells (100 mg/Kg), 1.8 times. For the same molecule, the figures for the Survival dates with AH66F cancer cells (10 mg/Kg × 3 days) and with AH66F cancer cells (100 mg/Kg × 3 days) were 11.5 ± 0.4 and 13.4 ± 0.4, respectively. In addition, the results for the Life-prolonging percentage in the data set on AH66F cancer cells (10 mg/Kg × 3 days) and with AH66F cancer cells (100 mg/Kg × 3 days) were 58% and 84%, respectively. Further, the inhibition at 100 µg/mL in data set [1] (Rattus norvegicus, 100 μg/ml sialic acid under coexistence of 10 μg/ml anti-LFA-1 antibody) turned out to be 7%; in data set [2] (100 μg/ml sialic acid) it was 31%. In addition, the “synergistic effect on adhesion inhibition (in words)” value in data set [1] (sialic acid with anti-LFA-1 antibody) was “synergistic effect”. In data set [2] (10 μg/ml sialic acid), this molecule had an inhibition at 10 µg/mL of 27%.

Consider `CC(=O)N[C@H]1[C@H]([C@H](O)[C@H](O)CO)OC(O)(C(=O)O)C[C@@H]1O` (stereo partly drawn) [sodium salts of sialic acid], for which, in data set [3], the LD50 was not below 2000 mg/kg.

Consider `CC(=O)NC1C(O)CC(OC(CO)C(O)C2OC(OC(CO)C(O)C3OC(O)(C(=O)O)CC(O)C3NC(C)=O)(C(=O)O)CC(O)C2NC(C)=O)(C(=O)O)OC1C(O)C(O)CO` (stereo not drawn) [trimer], for which the LD50 in data set [3] is not below 2000 mg/kg.
